This is an account of results in patent US11964973B2 (priority 2019, dated 2024).

SMILES strings stand for the structures. Like-named read-outs stand apart in the source and are kept apart here.

Assay [1] has as its system human venous whole blood, CD8 positive population (pERK). The experiment in a line: DGK human whole blood pERK assay. In kind it is cell-based. The note with it: for EC50: top concentration 20 μM. In a few lines: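 Heparinized whole blood from healthy donors preincubated with compound 1 hour at 37° C. Stimulation used anti-CD3 at 1 μg/mL final plus cross-linking goat anti-mouse IgG for 15 minutes. Flow cytometry scored percentage pERK-positive cells among CD8-positive cells.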

Assay [2] addresses full length human DGKζ (Homo sapiens (Human), UniProt Q13574). In words: In vitro DGK inhibition assay, Method B (DGKζ LIPGLO, extruded liposomes). In kind it is biochemical.
Assay [3] concerns the target Human DGKα(9-727) (Homo sapiens (Human), UniProt P23743). The experiment in a line: biochemical. As to conditions: liposome (LIPGLO) assay; Table A; read-out: DGKα LIPGLO IC50.
The test system of assay [4] is OT-1 CD8+ T cells with SIINFEKL-loaded MC38 tumor cells. The experiment in a line: Murine cytotoxic T lymphocyte assay (IFN-γ). In kind it is cell-based, mouse. The note with it: Mus musculus, MC-38; murine cytotoxic T lymphocyte, IFN-γ; read-out: msCTL INFg IC50. The text has this: Assay 6: Murine Cytotoxic T Lymphocyte Assay
An antigen-specific cytolytic T-cell (CTL) assay was developed to evaluate functionally the ability of DGKα and DGKζ inhibitors to enhance effector T cell mediated tumor cell killing activity. CD8+ T-cells isolated from the OT-1 transgenic mouse recognize antigen presenting cells, MC38, that present the ovalbumin derived peptide […]. Recognition of the cognate antigen initiates the cytolytic activity of the OT-1 antigen-specific CD8+ T cells.
Functional CTL cells were generated as follows: OT-1 splenocytes from 8-12 week old mice were isolated and expanded in the presence of the […] peptide at 1 μg/mL and mIL2 at 10 U/mL. After three days, fresh media with […] was added. On day 5 of the expansion, the CD8+ T cells were isolated and ready for use. Activated CTL cells may be stored frozen for 6 months. Separately, one million MC38 tumor cells were pulsed with 1 μg/mL of […]-OVA peptide for 3 hours at 37° C. The cells were washed (3×) with fresh media to remove excess peptide. Finally, CTL cells that were pretreated with DGK inhibitors for 1 hour in a 96-well U bottom plate were combined with the antigen loaded MC38 tumor cells at a 1:10 ratio. The cells were then spun at 700 rpm for 5 min and placed in an incubator overnight at 37° C. After 24 hours, the supernatant was collected for analysis of IFN-γ cytokine levels by AlphaLisa purchased from Perkin Elmer.

Assay [5] relates to naïve human CD8 T cells. In words: CellTiter-Glo CD8 T cell proliferation assay. In kind it is cell-based. The note with it: Homo sapiens, read-out: CD8 GLO Normalized EC50. In a few lines:
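Thawed naïve human CD8 T cells (20 k/well) were stimulated with plate-bound anti-CD3 (0.1 μg/mL coating) and 0.5 μg/ml soluble anti-CD28, with compounds added right after plating. After 72 h at 37° C, proliferation was read by CellTiter-Glo luminescence. The signal from stimulated cells was taken as background.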
For orientation: ATP-based viability assays read luminescence as a measure of living cells.

Assay [6] concerns Human venous whole blood (IFN-γ). In words: Human whole blood IFN-γ assay. The format is cell-based. As to conditions: Homo sapiens, 24 h, human whole blood, anti-CD3 plus anti-CD28, 24 hours; read-out: INFg Whole Blood Normalized Agonist EC50. As for the experimental part:
Assay 10: Human Whole Blood IFN-γ Assay
Human venous whole blood (22.5 μL per well), obtained from healthy donors, was pre-treated with compounds for one hour at 37° C. in a humidified 95% air/5% CO2 incubator. The blood was stimulated with 2.5 μL anti-human CD3 and anti-CD28 mAb at a final concentration of 1 μg/mL each for 24 hours at 37° C. IFN-γ in the supernatants was measured using AlphLISA kit (Cat #AL217).

Assay [7] concerns the target human DGKζ (Homo sapiens (Human), UniProt Q13574). The experiment in a line: biochemical. In kind it is biochemical. The note with it: liposome (LIPGLO) assay; read-out: DGKζ LIPGLO IC50.
Assay [8] concerns the target DGKα (Homo sapiens (Human), UniProt P23743). The experiment in a line: biochemical. The format is biochemical. As to conditions: liposome (LIPGLO) assay; read-out: DGKα LIPGLO IC50.
Where [9] appears, read: human whole blood, CD8 positive population, anti-CD3 stimulation, read-out: DGK HWB (human whole blood pERK).
The mark [10] stands for this setting: liposome (LIPGLO) assay, read-out: DGKζ LIPGLO IC50.
[11] abbreviates: read-out: DGK HWB (human whole blood pERK), human whole blood, CD8 positive population, anti-CD3 stimulation.
The mark [12] stands for this setting: Homo sapiens, CD8 positive, read-out: DGK HWB (human whole blood pERK), human whole blood, CD8 positive population, anti-CD3 stimulation.

Sequence of DGKα (P23743 whole entry, looked up): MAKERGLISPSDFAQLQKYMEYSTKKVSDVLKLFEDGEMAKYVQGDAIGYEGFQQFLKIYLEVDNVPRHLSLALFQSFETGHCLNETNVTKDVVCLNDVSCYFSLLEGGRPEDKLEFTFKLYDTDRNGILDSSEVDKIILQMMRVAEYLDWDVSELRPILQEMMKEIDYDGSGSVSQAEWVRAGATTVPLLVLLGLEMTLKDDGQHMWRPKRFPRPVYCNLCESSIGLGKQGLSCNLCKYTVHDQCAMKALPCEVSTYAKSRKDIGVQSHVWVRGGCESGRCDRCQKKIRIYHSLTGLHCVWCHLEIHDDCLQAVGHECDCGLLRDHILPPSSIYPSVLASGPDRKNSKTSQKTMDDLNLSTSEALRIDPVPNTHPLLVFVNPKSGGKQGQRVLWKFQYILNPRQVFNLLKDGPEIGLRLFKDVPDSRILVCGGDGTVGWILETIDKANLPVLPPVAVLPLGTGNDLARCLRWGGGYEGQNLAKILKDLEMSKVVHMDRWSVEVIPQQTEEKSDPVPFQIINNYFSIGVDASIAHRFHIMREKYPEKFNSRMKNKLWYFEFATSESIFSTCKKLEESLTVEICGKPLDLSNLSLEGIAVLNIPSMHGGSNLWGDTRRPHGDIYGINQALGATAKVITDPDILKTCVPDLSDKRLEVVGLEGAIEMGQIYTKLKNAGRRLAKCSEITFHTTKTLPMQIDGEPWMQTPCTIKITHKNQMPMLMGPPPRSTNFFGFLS
Sequence of Human DGKα(9-727) (P23743 whole entry, looked up): as above
Sequence of full length human DGKζ (Q13574 whole entry, looked up): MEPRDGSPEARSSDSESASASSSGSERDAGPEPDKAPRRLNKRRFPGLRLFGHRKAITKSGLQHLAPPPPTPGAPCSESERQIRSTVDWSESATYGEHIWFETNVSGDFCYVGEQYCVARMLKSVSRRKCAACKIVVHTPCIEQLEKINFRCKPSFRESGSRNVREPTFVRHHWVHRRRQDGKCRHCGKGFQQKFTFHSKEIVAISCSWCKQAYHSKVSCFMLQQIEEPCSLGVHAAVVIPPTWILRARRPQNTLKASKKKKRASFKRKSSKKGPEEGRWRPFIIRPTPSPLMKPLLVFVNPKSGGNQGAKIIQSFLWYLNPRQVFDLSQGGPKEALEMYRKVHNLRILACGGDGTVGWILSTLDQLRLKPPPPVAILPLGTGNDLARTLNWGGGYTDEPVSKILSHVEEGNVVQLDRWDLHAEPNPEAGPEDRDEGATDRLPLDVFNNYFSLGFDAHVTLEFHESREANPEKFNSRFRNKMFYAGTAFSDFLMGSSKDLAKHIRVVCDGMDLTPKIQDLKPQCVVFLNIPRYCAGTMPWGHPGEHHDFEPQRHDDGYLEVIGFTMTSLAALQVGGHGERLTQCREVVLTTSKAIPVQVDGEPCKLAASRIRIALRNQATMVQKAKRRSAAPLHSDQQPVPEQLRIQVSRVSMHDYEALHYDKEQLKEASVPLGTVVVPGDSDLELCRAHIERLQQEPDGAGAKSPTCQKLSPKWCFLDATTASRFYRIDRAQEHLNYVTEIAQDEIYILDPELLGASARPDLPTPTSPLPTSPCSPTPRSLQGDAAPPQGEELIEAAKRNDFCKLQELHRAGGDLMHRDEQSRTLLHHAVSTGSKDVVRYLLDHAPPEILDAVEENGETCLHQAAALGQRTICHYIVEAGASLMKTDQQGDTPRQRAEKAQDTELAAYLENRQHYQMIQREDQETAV
Sequence of human DGKζ (Q13574 whole entry, looked up): as above

Take `CCO[C@H]1CN(c2cc(=O)n(C)c3ccc(C#N)nc23)CC[C@@H]1Oc1ccc(OC(C)C)cn1` (relative stereo) [Example 398, trans-8-(4-((5-Isopropoxypyridin-2-yl)oxy)-3-ethoxypiperidin-1-yl)-5-methyl-6-oxo-5,6-dihydro-1,5-naphthyridine-2-carbonitrile]: the EC50 in assay [1] (setting [9]) came out at 2.8 µM. Further, the half-maximal inhibitory concentration (IC50) in assay [2] (setting [10]) came out at 1.2 µM.

For `COCCO[C@@H]1CN(c2cc(=O)n(C)c3ccc(C#N)nc23)CC[C@H]1Oc1cccc(C(F)(F)F)c1` [Example 390, 8-((3R,4R)-3-(2-methoxyethoxy)-4-(3-(trifluoromethyl)phenoxy)piperidin-1-yl)-5-methyl-6-oxo-5,6-dihydro-1,5-naphthyridine-2-carbonitrile], in assay [1] (setting [11]), the EC50 turned out to be 20 µM. In assay [2] (setting [10]), the half-inhibitory concentration (IC50) came out at 1.9 µM.

Take `CCO[C@H]1CN(c2cc(=O)n(C)c3ccc(C#N)nc23)CC[C@@H]1OCc1cccc(C(F)(F)F)c1` (single isomer, unassigned) [Example 382]: the EC50 in assay [1] (Homo sapiens, CD8 positive, human whole blood, CD8 positive population, anti-CD3 stimulation, read-out: DGK HWB (human whole blood pERK)) worked out at 20 µM. The IC50 in assay [2] (setting [10]) was 130 µM; in assay [3], 17 µM.

Consider `CCO[C@@H]1CN(c2nc(=O)n(C)c3ccc(C#N)nc23)CC[C@H]1Oc1ccc(OC(C)C)cn1` (relative stereo) [Example 401, trans-4-(3-Ethoxy-4-((5-isopropoxypyridin-2-yl)oxy)piperidin-1-yl)-1-methyl-2-oxo-1,2-dihydropyrido[3,2-d]pyrimidine-6-carbonitrile], for which the EC50 in assay [1] (setting [9]) is 2.3 µM. Besides, the concentration for half-maximal inhibition (IC50) stood at 0.39 µM in assay [2] (setting [10]) and 0.83 µM in assay [3].

In the case of `Cn1c(=O)c([N+](=O)[O-])c(N2CCC(Oc3ccc(OC(F)(F)F)cc3)CC2)c2nc(C#N)ccc21` [Example 51, 5-methyl-7-nitro-6-oxo-8-(4-(4-(trifluoromethoxy)phenoxy)piperidin-1-yl)-5,6-dihydro-1,5-naphthyridine-2-carbonitrile], the IC50 in assay [4] was found to be 0.18 µM; in assay [1] (human whole blood, CD8 positive population, read-out: DGK HWB pERK IC50) it was 2.5 µM; in assay [7] it was 3 µM; in assay [8] it was 0.23 µM. Besides, the EC50 came to 0.14 µM in assay [5] and 1.7 µM in assay [6].

On to `Cn1c(=O)cc(N2CC[C@@H](Oc3cccc(C(F)(F)F)c3)[C@H](OCC(F)(F)F)C2)c2nc(C#N)ccc21` [Example 394, 5-methyl-6-oxo-8-((3R,4R)-3-(2,2,2-trifluoroethoxy)-4-(3-(trifluoromethyl)phenoxy)piperidin-1-yl)-5,6-dihydro-1,5-naphthyridine-2-carbonitrile], for which the EC50 in assay [1] (setting [11]) was 6.2 µM. Also, the IC50 in assay [2] (setting [10]) was determined as 51 µM.

As for `CCO[C@@H]1CN(c2nc(=O)n(C)c3ccc(C#N)nc23)CC[C@H]1Oc1ccc(OC(C)C)cn1` (relative stereo) [Example 400, trans-4-(3-Ethoxy-4-((5-isopropoxypyridin-2-yl)oxy)piperidin-1-yl)-1-methyl-2-oxo-1,2-dihydropyrido[3,2-d]pyrimidine-6-carbonitrile], the EC50 in assay [1] (setting [9]) is 9.2 µM. For the same molecule, the IC50 in assay [2] (setting [10]) was determined as 0.7 µM; in assay [3], 6.1 µM.

Consider `CCO[C@H]1CN(c2nc(=O)n(C)c3ccc(C#N)nc23)CC[C@@H]1Oc1ccc(C(F)(F)F)cc1` [Example 404, 4-((3S,4S)-3-ethoxy-4-(4-(trifluoromethyl)phenoxy)piperidin-1-yl)-1-methyl-2-oxo-1,2-dihydropyrido[3,2-d]pyrimidine-6-carbonitrile], for which the EC50 in assay [1] (setting [12]) came out at 1.3 µM. For the same molecule, the IC50 in assay [2] (setting [10]) was determined as 1.2 µM; in assay [3] it was 5.6 µM.

`CN(C)CCO[C@@H]1CN(c2cc(=O)n(C)c3ccc(C#N)nc23)CC[C@H]1Oc1cccc(C(F)(F)F)c1` [Example 385, 8-((3R,4R)-3-(2-(dimethylamino)ethoxy)-4-(3-(trifluoromethyl)phenoxy)piperidin-1-yl)-5-methyl-6-oxo-5,6-dihydro-1,5-naphthyridine-2-carbonitrile]: the IC50 is 130 µM in assay [2] (setting [10]) and 100 µM in assay [3].

Turning to `COCCO[C@@H]1CN(c2cc(=O)n(C)c3ccc(C#N)nc23)CC[C@H]1Oc1cccc(C(F)(F)F)c1` [Example 389, 8-((3R,4R)-3-(2-methoxyethoxy)-4-(3-(trifluoromethyl)phenoxy)piperidin-1-yl)-5-methyl-6-oxo-5,6-dihydro-1,5-naphthyridine-2-carbonitrile], the EC50 in assay [1] (setting [11]) came to 3 µM. The values for the IC50 in assay [2] (setting [10]) and in assay [3] were 0.27 µM and 2.5 µM, respectively.

As for `CC(C)O[C@@H]1CN(c2cc(=O)n(C)c3ccc(C#N)nc23)CC[C@H]1Oc1cccc(C(F)(F)F)c1` (relative stereo) [Example 395, trans-8-(3-Isopropoxy-4-(3-(trifluoromethyl)phenoxy)piperidin-1-yl)-5-methyl-6-oxo-5,6-dihydro-1,5-naphthyridine-2-carbonitrile], in assay [1] (setting [9]), the EC50 worked out at 0.91 µM. The IC50 in assay [2] (setting [10]) stood at 0.069 µM; in assay [3] it was 0.32 µM.

On to `C[C@@H]1CN(c2cc(=O)n(C)c3ccc(C#N)nc23)[C@@H](C)CC1N(C)C(=O)c1ccc(F)cc1` (single isomer, unassigned) [Example 283B], for which the IC50 in assay [2] and in assay [3] was 42 µM each time.

Take `CCO[C@H]1CN(c2cc(=O)n(C)c3ccc(C#N)nc23)CC[C@@H]1Oc1ccc(OC(C)C)nn1` [Example 376, 8-((3S,4S)-3-ethoxy-4-((6-isopropoxypyridazin-3-yl)oxy)piperidin-1-yl)-5-methyl-6-oxo-5,6-dihydro-1,5-naphthyridine-2-carbonitrile]: the EC50 in assay [1] (setting [12]) turned out to be 20 µM. Further, the half-inhibitory concentration (IC50) in assay [2] (setting [10]) came out at 14 µM.

Turning to `CCO[C@H]1CN(c2nc(=O)n(C)c3ccc(C#N)nc23)CC[C@@H]1Oc1ccc(C(F)(F)F)cc1` [Example 405, 4-((3S,4S)-3-ethoxy-4-(4-(trifluoromethyl)phenoxy)piperidin-1-yl)-1-methyl-2-oxo-1,2-dihydropyrido[3,2-d]pyrimidine-6-carbonitrile], the IC50 in assay [2] (setting [10]) came out at 14 µM.

For `Cn1c(=O)c(C#N)c(N2CCC(Oc3ccc(F)c(F)c3)CC2)c2nc(Cl)ccc21` [Example 12, 6-chloro-4-(4-(3,4-difluorophenoxy)piperidin-1-yl)-1-methyl-2-oxo-1,2-dihydro-1,5-naphthyridine-3-carbonitrile], the IC50 in assay [4] amounted to 3.8 µM; in assay [7], 27 µM; in assay [8], 3.2 µM. Also, the EC50 was found to be 2.3 µM in assay [5] and 5 µM in assay [6].

Regarding `C[C@@H]1CN(c2cc(=O)n(C)c3ccc(C#N)nc23)[C@@H](C)CC1N(C)C(=O)c1ccc(F)cc1` (single isomer, unassigned) [Example 283A], the IC50 in assay [2] (setting [10]) came out at 14 µM; in assay [3], 26 µM.

In the case of `Cn1c(=O)c(C#N)c(N2CCC(Oc3ccccc3C(F)(F)F)CC2)c2nc(Cl)ccc21` [Example 11, 6-chloro-1-methyl-2-oxo-4-(4-(2-(trifluoromethyl)phenoxy)piperidin-1-yl)-1,2-dihydro-1,5-naphthyridine-3-carbonitrile], the IC50 in assay [4] amounted to 0.83 µM; in assay [7] it was 150 µM; in assay [8], 12 µM. Further, the EC50 in assay [5] and in assay [6] was 10 µM each time.

For orientation: IC50 means the concentration at which inhibition is half-maximal.
